# Experimental data: patent US11117947B2, “Double-acylated GLP-1 derivatives” (Novo Nordisk A/S, priority 2011, dated 2021)
# Numbered stars: 1 amine (or outer) side, 2 acyl side, 3 side chain; on linkers, the order of the positions; unused ones are H or OH. Side chains are listed from the residue outwards. Peptide text beside a SMILES is read from it. * marks the point of attachment. Decanoyl(10-(4-HOOC-PhO)) = O=C(O)c1ccc(OCCCCCCCCCC(=O)*)cc1; γGlu = O=C(O)[C@H](CCC(=O)[*:2])N[*:1]; C14 diacid = O=C(O)CCCCCCCCCCCCC(=O)*; AEEA = NCCOCCOCC(=O)O
# Assay: Estimate of oral bioavailability: gut injection in rat (caprate), exposure in plasma
# Type: in vivo
# Details: injection in jejunum, 1000 uM in 55 mg/ml sodium caprate, plasma concentration (pM) at 30 min divided by dosing solution concentration (μM), mean n=4
# Experimental: The GLP-1 derivatives were tested in a concentration of 1000 uM in a solution of 55 mg/ml sodium caprate.
# Male Sprague Dawley rats with a body weight upon arrival of approximately 240 g were obtained from Taconic (Denmark) and assigned to the different treatments by simple randomisation, 4 rats per group.
# The GLP-1 derivatives were administered in the jejunum either in the proximal part (10 cm distal for the duodenum) or in the mid-intestine (50 cm proximal for the cecum). A PE50-catheter, 10 cm long was inserted into the jejunum, forwarded at least 1.5 cm into the jejunum, and secured before dosing by ligature around the gut and the catheter with 3/0 suture distal to tip to prevent leak or catheter displacement. Catheter was placed without syringe and needle and 2 ml saline was administered into abdomen before closing the incision with wound clips.
# 100 μl of the respective GLP-1 derivative was injected into the jejunal lumen through the catheter with a 1 ml syringe. Subsequently, 200 μl of air was pushed into the jejunal lumen with another syringe to “flush” the catheter. This syringe was leaved connected to the catheter to prevent flow back into the catheter.
# Blood samples (200 ul) were collected at desired intervals (usually at times 0, 10, 30, 60, 120 and 240 min) into EDTA tubes from the tail vein and centrifuged 5 minutes, 10000G, at 4° C. within 20 minutes. […] 12, p. 240-247. The donor beads were coated with streptavidin, while acceptor beads were conjugated with a monoclonal antibody recognising a mid-/C-terminal epitope of the peptide. Another monoclonal antibody, specific for the N-terminus, was biotinylated. The three reactants were combined with the analyte and formed a two-sited immuno-complex. Illumination of the complex released singlet oxygen atoms from the donor beads, which were channeled into the acceptor beads and triggered chemiluminescence which was measured in an Envision plate reader. The amount of light was proportional to the concentration of the compound.
# After the blood sampling the rats were sacrificed under anaesthesia and the abdomen was opened to verify correct catheter placement.
# The mean (n=4) plasma concentrations (pmol/l) were determined as a function of time.
row,Structure (SMILES),Dose-corrected exposure at 30 min
1,"CC[C@H](C)[C@H](NC(=O)[C@H](Cc1ccccc1)NC(=O)[C@H](CCCCNC(=O)COCCOCCNC(=O)COCCOCCNC(=O)CC[C@H](NC(=O)CCCCCCCCCCCCC(=O)O)C(=O)O)NC(=O)[C@H](CCCNC(=N)N)NC(=O)[C@@H](NC(=O)[C@H](C)NC(=O)[C@H](CCC(N)=O)NC(=O)[C@H](CCCCNC(=O)COCCOCCNC(=O)COCCOCCNC(=O)CC[C@H](NC(=O)CCCCCCCCCCCCC(=O)O)C(=O)O)NC(=O)[C@H](CCC(=O)O)NC(=O)[C@H](CC(C)C)NC(=O)[C@H](Cc1ccc(O)cc1)NC(=O)[C@H](CO)NC(=O)[C@H](CO)NC(=O)[C@@H](NC(=O)[C@H](CC(=O)O)NC(=O)[C@H](CO)NC(=O)[C@@H](NC(=O)[C@H](Cc1ccccc1)NC(=O)[C@@H](NC(=O)CNC(=O)[C@H](CCC(=O)O)NC(=O)[C@H](C)NC(=O)[C@@H](N)Cc1c[nH]cn1)[C@@H](C)O)[C@@H](C)O)C(C)C)C(C)C)C(=O)N[C@@H](CCC(=O)O)C(=O)N[C@@H](Cc1c[nH]c2ccccc12)C(=O)N[C@@H](CC(C)C)C(=O)N[C@H](C(=O)N[C@@H](CCC(N)=O)C(=O)NCC(=O)N[C@@H](CCCNC(=N)N)C(=O)NCC(=O)O)C(C)C [Example 11, N^ε22-[2-[2-[2-[[2-[2-[2-[[(4S)-4-carboxy-4-(13-carboxytridecanoylamino)butanoyl]amino]ethoxy]ethoxy]acetyl]amino]ethoxy]ethoxy]acetyl], N^ε27-[2-[2-[2-[[2-[2-[2-[[(4S)-4-carboxy-4-(13-carboxytridecanoylamino)butanoyl]amino]ethoxy]ethoxy]acetyl]amino]ethoxy]ethoxy]acetyl]-[Lys^22,Val^25,Arg^26,Lys^27,Glu^30,Gln^34]-GLP-1-(7-37)-peptide] (H-HAEGTFTSDVSSYLEK([AEEA-AEEA-γGlu-C14 diacid])QAVRK([AEEA-AEEA-γGlu-C14 diacid])FIEWLVQGRG-OH; N-terminus and C-terminus assumed)",66
2,"CC[C@H](C)[C@H](NC(=O)[C@H](Cc1ccccc1)NC(=O)[C@H](CCCCNC(=O)COCCOCCNC(=O)COCCOCCNC(=O)CC[C@H](NC(=O)CCCCCCCCCOc1ccc(C(=O)O)cc1)C(=O)O)NC(=O)[C@H](CCCNC(=N)N)NC(=O)[C@@H](NC(=O)[C@H](C)NC(=O)[C@H](CCC(N)=O)NC(=O)CNC(=O)[C@H](CCC(=O)O)NC(=O)[C@H](CC(C)C)NC(=O)[C@H](Cc1ccc(O)cc1)NC(=O)[C@H](CO)NC(=O)[C@H](CO)NC(=O)[C@@H](NC(=O)[C@H](CC(=O)O)NC(=O)[C@H](CO)NC(=O)[C@@H](NC(=O)[C@H](Cc1ccccc1)NC(=O)[C@@H](NC(=O)CNC(=O)[C@H](CCC(=O)O)NC(=O)[C@H](C)NC(=O)[C@@H](N)Cc1c[nH]cn1)[C@@H](C)O)[C@@H](C)O)C(C)C)C(C)C)C(=O)N[C@@H](CCC(=O)O)C(=O)N[C@@H](Cc1c[nH]c2ccccc12)C(=O)N[C@@H](CC(C)C)C(=O)N[C@H](C(=O)N[C@@H](CCCNC(=N)N)C(=O)NCC(=O)N[C@@H](CCCCNC(=O)COCCOCCNC(=O)COCCOCCNC(=O)CC[C@H](NC(=O)CCCCCCCCCOc1ccc(C(=O)O)cc1)C(=O)O)C(=O)NCC(=O)N[C@@H](CCC(N)=O)C(=O)O)C(C)C [Example 12, N^α(N^ε27-[2-[2-[2-[[2-[2-[2-[[(4S)-4-carboxy-4-[10-(4-carboxyphenoxy)decanoylamino]butanoyl]amino]ethoxy]ethoxy]acetyl]amino]ethoxy]ethoxy]acetyl], N^ε36-[2-[2-[2-[[2-[2-[2-[[(4S)-4-carboxy-4-[10-(4-carboxyphenoxy)decanoylamino]butanoyl]amino]ethoxy]ethoxy]acetyl]amino]ethoxy]ethoxy]acetyl]-[Val^25,Arg^26,Lys^27,Glu^30,Arg^34,Lys^36]-GLP-1-(7-37)-peptidyl)-Gln] (H-HAEGTFTSDVSSYLEGQAVRK([AEEA-AEEA-γGlu-Decanoyl(10-(4-HOOC-PhO))])FIEWLVRGK([AEEA-AEEA-γGlu-Decanoyl(10-(4-HOOC-PhO))])GQ-OH; N-terminus and C-terminus assumed)",68
3,"CC[C@H](C)[C@H](NC(=O)[C@H](Cc1ccccc1)NC(=O)[C@H](CCCCNC(=O)COCCOCCNC(=O)COCCOCCNC(=O)CC[C@H](NC(=O)CCCCCCCCCOc1ccc(C(=O)O)cc1)C(=O)O)NC(=O)[C@H](CCCNC(=N)N)NC(=O)[C@@H](NC(=O)[C@H](C)NC(=O)[C@H](CCC(N)=O)NC(=O)CNC(=O)[C@H](CCC(=O)O)NC(=O)[C@H](CC(C)C)NC(=O)[C@H](Cc1ccc(O)cc1)NC(=O)[C@H](CO)NC(=O)[C@H](CO)NC(=O)[C@@H](NC(=O)[C@H](CC(=O)O)NC(=O)[C@H](CO)NC(=O)[C@@H](NC(=O)[C@H](Cc1ccccc1)NC(=O)[C@@H](NC(=O)CNC(=O)[C@H](CCC(=O)O)NC(=O)[C@H](C)NC(=O)[C@@H](N)Cc1c[nH]cn1)[C@@H](C)O)[C@@H](C)O)C(C)C)C(C)C)C(=O)N[C@@H](CCC(=O)O)C(=O)N[C@@H](Cc1c[nH]c2ccccc12)C(=O)N[C@@H](CC(C)C)C(=O)N[C@H](C(=O)N[C@@H](CCC(N)=O)C(=O)NCC(=O)N[C@@H](CCCCNC(=O)COCCOCCNC(=O)COCCOCCNC(=O)CC[C@H](NC(=O)CCCCCCCCCOc1ccc(C(=O)O)cc1)C(=O)O)C(=O)NCC(=O)N[C@@H](CCC(=O)O)C(=O)O)C(C)C [Example 13, N^ε27-[2-[2-[2-[[2-[2-[2-[[(4S)-4-carboxy-4-[10-(4-carboxyphenoxy)decanoylamino]butanoyl]amino]ethoxy]ethoxy]acetyl]amino]ethoxy]ethoxy]acetyl], N^ε36-[2-[2-[2-[[2-[2-[2-[[(4S)-4-carboxy-4-[10-(4-carboxyphenoxy)decanoylamino]butanoyl]amino]ethoxy]ethoxy]acetyl]amino]ethoxy]ethoxy]acetyl]-[Val^25,Arg^26,Lys^27,Glu^30,Gln^34,Lys^36]-GLP-1-(7-37)-peptidyl-Glu] (H-HAEGTFTSDVSSYLEGQAVRK([AEEA-AEEA-γGlu-Decanoyl(10-(4-HOOC-PhO))])FIEWLVQGK([AEEA-AEEA-γGlu-Decanoyl(10-(4-HOOC-PhO))])GE-OH; N-terminus and C-terminus assumed)",126
4,"CC[C@H](C)[C@H](NC(=O)[C@H](Cc1ccccc1)NC(=O)[C@H](CCCCNC(=O)CC[C@H](NC(=O)COCCOCCNC(=O)COCCOCCNC(=O)CCCCCCCCCCCCC(=O)O)C(=O)O)NC(=O)[C@H](CCCNC(=N)N)NC(=O)[C@H](C)NC(=O)[C@H](C)NC(=O)[C@H](CCC(N)=O)NC(=O)[C@H](CCCCNC(=O)CC[C@H](NC(=O)COCCOCCNC(=O)COCCOCCNC(=O)CCCCCCCCCCCCC(=O)O)C(=O)O)NC(=O)[C@H](CCC(=O)O)NC(=O)[C@H](CC(C)C)NC(=O)[C@H](Cc1ccc(O)cc1)NC(=O)[C@H](CO)NC(=O)[C@H](CO)NC(=O)[C@@H](NC(=O)[C@H](CC(=O)O)NC(=O)[C@H](CO)NC(=O)[C@@H](NC(=O)[C@H](Cc1ccccc1)NC(=O)[C@@H](NC(=O)CNC(=O)[C@H](CCC(=O)O)NC(=O)[C@H](C)NC(=O)[C@@H](N)Cc1c[nH]cn1)[C@@H](C)O)[C@@H](C)O)C(C)C)C(=O)N[C@@H](C)C(=O)N[C@@H](Cc1c[nH]cn1)C(=O)N[C@@H](CC(C)C)C(=O)N[C@H](C(=O)NCC(=O)O)C(C)C [Example 14, N^ε22-[(4S)-4-carboxy-4-[[2-[2-[2-[[2-[2-[2-(13-carboxytridecanoylamino)ethoxy]ethoxy]acetyl]amino]ethoxy]ethoxy]acetyl]amino]butanoyl], N^ε27-[(4S)-4-carboxy-4-[[2-[2-[2-[[2-[2-[2-(13-carboxytridecanoylamino)ethoxy]ethoxy]acetyl]amino]ethoxy]ethoxy]acetyl]amino]butanoyl]-[Lys^22,Arg^26,Lys^27,His^31,Gly^34]-GLP-1-(7-34)-peptide] (H-HAEGTFTSDVSSYLEK([γGlu-AEEA-AEEA-C14 diacid])QAARK([γGlu-AEEA-AEEA-C14 diacid])FIAHLVG-OH; N-terminus and C-terminus assumed)",121
